Data reported in ChEMBL document CHEMBL4507276 (2021).

Columns and labels:
[1] = target: Atypical kinase COQ8B, mitochondrial (Homo sapiens) (UniProt Q96D53); details: Compound concentration 1000.0 nM
[2] = target: Phosphatidylinositol 4-kinase beta (Homo sapiens) (UniProt Q9UBF8); details: Compound concentration 1000.0 nM
[3] = target: Adenosine receptor A2a (Homo sapiens) (UniProt P29274); assay: A2A/H Cerep selectivity data (BI); details: filed as antagonist, Compound concentration 20.0 uM
[4] = target: Cannabinoid receptor 2 (Homo sapiens) (UniProt P34972); assay: CB2/PERIPH/H Cerep selectivity data (BI); details: Compound concentration 20.0 uM
Sequence of Cannabinoid receptor 2 (Homo sapiens) (P34972 whole entry): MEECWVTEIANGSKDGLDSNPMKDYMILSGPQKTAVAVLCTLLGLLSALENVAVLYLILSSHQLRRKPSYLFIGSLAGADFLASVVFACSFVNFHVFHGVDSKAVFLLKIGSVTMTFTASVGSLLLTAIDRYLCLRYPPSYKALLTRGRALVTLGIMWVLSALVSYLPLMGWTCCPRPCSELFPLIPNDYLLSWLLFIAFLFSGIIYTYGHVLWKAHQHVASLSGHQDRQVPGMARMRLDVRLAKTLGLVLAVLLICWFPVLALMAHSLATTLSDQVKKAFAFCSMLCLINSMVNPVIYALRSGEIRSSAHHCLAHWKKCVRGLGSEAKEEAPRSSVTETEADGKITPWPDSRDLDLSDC

[5] = target: Mitogen-activated protein kinase 1 (Homo sapiens) (UniProt P28482); assay: ERK2(P42MAPK)_CE Cerep selectivity data (BI); details: Compound concentration 20.0 uM
Sequence of Mitogen-activated protein kinase 1 (Homo sapiens) (P28482 whole entry): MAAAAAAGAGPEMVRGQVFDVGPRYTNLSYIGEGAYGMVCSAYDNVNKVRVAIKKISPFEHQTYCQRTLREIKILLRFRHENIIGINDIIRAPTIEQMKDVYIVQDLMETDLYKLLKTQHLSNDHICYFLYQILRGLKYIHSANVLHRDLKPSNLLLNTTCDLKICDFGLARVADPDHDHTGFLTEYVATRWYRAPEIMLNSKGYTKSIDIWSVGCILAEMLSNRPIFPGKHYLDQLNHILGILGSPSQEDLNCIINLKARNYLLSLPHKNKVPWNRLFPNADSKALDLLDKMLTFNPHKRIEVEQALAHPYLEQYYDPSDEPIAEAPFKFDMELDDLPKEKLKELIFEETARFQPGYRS

[6] = target: Glucagon receptor (Homo sapiens) (UniProt P47871); assay: GLUCAGONH_AGON Cerep selectivity data (BI); details: filed as agonist, Compound concentration 20.0 uM
Sequence of Glucagon receptor (Homo sapiens) (P47871 whole entry): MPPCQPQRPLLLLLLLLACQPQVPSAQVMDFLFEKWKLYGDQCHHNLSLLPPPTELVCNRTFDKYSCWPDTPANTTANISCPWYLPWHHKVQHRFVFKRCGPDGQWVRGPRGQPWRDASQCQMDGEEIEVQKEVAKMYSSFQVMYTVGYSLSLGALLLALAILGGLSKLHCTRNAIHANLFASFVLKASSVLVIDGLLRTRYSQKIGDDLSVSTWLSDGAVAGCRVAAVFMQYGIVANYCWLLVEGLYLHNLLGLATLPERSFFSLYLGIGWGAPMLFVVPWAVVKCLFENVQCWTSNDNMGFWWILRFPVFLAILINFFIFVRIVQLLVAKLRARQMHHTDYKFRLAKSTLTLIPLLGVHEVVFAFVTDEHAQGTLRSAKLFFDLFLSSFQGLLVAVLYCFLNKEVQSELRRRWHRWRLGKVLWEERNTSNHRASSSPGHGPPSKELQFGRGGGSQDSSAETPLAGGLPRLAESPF

[7] = target: Rod cGMP-specific 3',5'-cyclic phosphodiesterase subunit alpha (Bos taurus) (UniProt P11541); assay: PDE6_CE Cerep selectivity data (BI); details: Compound concentration 20.0 uM
[8] = target: Somatostatin receptor type 1 (Homo sapiens) (UniProt P30872); assay: SST1H_AGON Cerep selectivity data (BI); details: filed as agonist, Compound concentration 20.0 uM
Sequence of Somatostatin receptor type 1 (Homo sapiens) (P30872 whole entry): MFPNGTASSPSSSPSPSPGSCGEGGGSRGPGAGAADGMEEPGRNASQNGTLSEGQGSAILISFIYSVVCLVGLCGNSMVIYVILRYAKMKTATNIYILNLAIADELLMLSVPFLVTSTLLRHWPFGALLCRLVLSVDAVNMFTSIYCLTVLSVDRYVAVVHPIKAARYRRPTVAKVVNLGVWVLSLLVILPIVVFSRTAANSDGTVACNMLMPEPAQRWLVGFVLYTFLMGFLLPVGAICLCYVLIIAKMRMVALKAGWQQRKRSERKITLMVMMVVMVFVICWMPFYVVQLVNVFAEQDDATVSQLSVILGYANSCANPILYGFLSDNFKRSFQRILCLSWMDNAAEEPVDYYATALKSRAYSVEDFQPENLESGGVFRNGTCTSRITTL

[9] = target: Sodium-dependent dopamine transporter (Homo sapiens, UniProt Q01959); assay: DATRANS/H Eurofins-Panlabs selectivity data (BI); details: Compound concentration 10.0 uM
[10] = target: T1, Serine/threonine-protein kinase BRSK1 (Homo sapiens) (UniProt Q8TDC3); assay: BRSK1 Invitrogen selectivity data (BI); details: Compound concentration 3.0 uM
T1 sequence (whole entry): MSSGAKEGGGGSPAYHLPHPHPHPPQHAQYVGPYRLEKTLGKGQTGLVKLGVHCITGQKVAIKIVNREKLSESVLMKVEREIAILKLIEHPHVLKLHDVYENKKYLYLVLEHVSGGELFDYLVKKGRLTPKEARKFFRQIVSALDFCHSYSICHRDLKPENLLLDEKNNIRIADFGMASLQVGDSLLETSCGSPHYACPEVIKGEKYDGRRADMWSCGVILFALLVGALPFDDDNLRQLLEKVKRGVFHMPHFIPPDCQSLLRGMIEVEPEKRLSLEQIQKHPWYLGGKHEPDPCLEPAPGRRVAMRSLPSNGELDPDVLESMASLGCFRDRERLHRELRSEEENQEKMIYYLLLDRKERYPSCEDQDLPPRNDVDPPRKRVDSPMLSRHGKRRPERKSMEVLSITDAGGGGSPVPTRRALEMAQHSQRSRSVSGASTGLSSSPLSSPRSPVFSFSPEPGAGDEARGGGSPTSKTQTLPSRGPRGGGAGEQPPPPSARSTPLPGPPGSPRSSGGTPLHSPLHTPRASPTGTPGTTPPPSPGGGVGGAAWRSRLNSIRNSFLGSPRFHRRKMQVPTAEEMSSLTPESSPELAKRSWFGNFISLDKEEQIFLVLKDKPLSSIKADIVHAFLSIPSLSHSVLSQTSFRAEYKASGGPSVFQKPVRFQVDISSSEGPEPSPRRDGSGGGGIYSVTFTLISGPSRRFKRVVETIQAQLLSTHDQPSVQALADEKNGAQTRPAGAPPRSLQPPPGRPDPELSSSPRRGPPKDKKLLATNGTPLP

[11] = target: Receptor tyrosine-protein kinase erbB-2 (Homo sapiens) (UniProt P04626); assay: ERBB2 Invitrogen selectivity data (BI); details: Compound concentration 3.0 uM
[12] = target: MAP kinase-interacting serine/threonine-protein kinase 2 (Homo sapiens) (UniProt Q9HBH9); assay: MKNK2 (MNK2) Invitrogen selectivity data (BI); details: Compound concentration 3.0 uM
Sequence of MAP kinase-interacting serine/threonine-protein kinase 2 (Homo sapiens) (Q9HBH9 whole entry, looked up): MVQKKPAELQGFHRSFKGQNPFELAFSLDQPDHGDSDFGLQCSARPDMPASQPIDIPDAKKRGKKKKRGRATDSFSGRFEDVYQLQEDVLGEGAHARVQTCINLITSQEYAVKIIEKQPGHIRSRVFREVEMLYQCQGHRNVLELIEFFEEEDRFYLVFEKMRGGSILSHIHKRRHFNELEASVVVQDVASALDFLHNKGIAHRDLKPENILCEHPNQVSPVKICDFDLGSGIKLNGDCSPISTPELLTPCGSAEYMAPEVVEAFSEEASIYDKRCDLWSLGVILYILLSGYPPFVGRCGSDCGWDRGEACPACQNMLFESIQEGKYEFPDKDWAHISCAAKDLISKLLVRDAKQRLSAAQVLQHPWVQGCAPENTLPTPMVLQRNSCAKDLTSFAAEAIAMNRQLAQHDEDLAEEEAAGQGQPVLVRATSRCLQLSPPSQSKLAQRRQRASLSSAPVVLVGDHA

[13] = target: T2, Serine/threonine-protein kinase Nek9 (Homo sapiens) (UniProt Q8TD19); assay: NEK9 Invitrogen selectivity data (BI); details: Compound concentration 3.0 uM
T2 sequence (whole entry): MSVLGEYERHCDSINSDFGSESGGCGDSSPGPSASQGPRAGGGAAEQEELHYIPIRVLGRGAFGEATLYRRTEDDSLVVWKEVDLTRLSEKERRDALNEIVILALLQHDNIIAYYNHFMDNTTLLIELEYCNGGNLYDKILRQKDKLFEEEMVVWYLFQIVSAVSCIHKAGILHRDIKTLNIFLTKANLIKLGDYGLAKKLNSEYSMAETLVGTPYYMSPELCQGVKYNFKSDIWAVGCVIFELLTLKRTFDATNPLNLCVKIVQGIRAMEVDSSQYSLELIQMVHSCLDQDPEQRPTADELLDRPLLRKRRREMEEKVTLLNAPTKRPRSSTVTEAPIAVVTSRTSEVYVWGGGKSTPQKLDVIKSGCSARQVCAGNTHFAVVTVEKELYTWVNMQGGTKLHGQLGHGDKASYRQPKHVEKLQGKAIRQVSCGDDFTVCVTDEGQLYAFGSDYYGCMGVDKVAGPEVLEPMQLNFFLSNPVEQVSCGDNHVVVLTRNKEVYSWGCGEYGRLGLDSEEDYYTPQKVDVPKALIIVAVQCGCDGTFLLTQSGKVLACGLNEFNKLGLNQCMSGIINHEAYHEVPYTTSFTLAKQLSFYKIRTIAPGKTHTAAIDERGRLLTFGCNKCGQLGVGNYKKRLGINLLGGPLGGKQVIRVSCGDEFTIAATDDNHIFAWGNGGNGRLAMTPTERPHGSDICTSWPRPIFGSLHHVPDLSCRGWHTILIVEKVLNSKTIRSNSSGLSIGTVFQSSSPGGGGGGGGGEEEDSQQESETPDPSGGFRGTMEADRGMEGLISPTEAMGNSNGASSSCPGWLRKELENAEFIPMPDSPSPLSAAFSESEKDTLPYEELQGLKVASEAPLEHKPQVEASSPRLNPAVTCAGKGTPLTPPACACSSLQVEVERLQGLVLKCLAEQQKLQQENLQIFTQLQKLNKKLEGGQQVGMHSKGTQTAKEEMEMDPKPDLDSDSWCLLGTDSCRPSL

[14] = target: Protein kinase C theta type (Homo sapiens) (UniProt Q04759); assay: PRKCQ Invitrogen selectivity data (BI); details: Compound concentration 3.0 uM
Sequence of Protein kinase C theta type (Homo sapiens) (Q04759 whole entry, looked up): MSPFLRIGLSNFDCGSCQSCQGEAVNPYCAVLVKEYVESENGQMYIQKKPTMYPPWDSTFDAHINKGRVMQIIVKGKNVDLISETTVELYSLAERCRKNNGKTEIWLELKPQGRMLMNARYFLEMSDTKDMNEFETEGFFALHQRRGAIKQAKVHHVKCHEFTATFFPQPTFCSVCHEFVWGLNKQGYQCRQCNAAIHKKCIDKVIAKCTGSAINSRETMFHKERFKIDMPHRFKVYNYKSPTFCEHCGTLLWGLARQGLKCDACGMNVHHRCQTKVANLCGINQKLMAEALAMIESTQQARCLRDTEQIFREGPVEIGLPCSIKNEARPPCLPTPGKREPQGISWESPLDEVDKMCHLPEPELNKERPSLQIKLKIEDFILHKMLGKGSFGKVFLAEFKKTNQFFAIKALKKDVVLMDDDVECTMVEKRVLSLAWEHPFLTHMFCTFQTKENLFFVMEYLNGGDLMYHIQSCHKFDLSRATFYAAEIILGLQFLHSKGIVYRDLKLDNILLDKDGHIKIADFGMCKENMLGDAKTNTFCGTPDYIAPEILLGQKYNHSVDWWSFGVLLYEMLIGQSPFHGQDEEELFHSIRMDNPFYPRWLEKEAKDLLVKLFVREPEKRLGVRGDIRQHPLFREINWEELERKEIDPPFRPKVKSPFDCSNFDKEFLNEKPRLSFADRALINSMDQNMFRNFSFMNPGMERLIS

[15] = target: Rho-associated protein kinase 1 (Homo sapiens) (UniProt Q13464); assay: ROCK1 Invitrogen selectivity data (BI); details: Compound concentration 3.0 uM
Sequence of Rho-associated protein kinase 1 (Homo sapiens) (Q13464 2-1354 limits assumed): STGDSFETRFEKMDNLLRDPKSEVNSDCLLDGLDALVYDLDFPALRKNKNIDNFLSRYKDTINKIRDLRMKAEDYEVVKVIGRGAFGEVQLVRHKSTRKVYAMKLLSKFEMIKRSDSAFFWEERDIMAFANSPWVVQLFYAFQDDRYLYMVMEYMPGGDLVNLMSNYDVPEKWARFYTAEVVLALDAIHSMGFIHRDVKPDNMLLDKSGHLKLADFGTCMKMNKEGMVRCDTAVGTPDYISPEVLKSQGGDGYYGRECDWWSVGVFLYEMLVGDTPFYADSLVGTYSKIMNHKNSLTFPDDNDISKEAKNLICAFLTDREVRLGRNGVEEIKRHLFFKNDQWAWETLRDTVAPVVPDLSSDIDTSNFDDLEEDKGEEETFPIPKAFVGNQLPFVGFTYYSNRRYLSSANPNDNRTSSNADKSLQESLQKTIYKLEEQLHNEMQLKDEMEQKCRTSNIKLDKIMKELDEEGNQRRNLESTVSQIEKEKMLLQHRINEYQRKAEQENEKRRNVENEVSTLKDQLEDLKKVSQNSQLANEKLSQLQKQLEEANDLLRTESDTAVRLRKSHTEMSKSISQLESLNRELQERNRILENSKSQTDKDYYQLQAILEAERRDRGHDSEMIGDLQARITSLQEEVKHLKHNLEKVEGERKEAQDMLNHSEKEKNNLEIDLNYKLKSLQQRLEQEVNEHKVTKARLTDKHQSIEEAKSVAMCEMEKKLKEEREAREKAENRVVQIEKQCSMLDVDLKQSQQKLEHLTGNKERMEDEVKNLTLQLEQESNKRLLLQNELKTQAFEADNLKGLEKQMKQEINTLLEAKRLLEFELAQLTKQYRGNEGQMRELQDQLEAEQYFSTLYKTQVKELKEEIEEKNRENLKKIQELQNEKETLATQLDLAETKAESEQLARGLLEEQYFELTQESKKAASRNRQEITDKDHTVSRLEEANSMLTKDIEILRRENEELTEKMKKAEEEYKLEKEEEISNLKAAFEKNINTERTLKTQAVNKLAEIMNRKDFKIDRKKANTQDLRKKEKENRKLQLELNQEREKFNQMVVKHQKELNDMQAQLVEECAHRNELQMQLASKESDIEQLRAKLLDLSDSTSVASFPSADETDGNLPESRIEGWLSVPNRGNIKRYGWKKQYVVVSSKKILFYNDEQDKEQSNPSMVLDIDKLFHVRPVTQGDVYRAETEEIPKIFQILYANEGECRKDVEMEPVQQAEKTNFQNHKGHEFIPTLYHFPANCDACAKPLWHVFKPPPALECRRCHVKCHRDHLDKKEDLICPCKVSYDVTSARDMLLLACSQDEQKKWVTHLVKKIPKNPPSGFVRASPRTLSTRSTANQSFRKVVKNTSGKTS

Measured: residual activity

Sequence of Phosphatidylinositol 4-kinase beta (Homo sapiens) (Q9UBF8 2-816 limits assumed): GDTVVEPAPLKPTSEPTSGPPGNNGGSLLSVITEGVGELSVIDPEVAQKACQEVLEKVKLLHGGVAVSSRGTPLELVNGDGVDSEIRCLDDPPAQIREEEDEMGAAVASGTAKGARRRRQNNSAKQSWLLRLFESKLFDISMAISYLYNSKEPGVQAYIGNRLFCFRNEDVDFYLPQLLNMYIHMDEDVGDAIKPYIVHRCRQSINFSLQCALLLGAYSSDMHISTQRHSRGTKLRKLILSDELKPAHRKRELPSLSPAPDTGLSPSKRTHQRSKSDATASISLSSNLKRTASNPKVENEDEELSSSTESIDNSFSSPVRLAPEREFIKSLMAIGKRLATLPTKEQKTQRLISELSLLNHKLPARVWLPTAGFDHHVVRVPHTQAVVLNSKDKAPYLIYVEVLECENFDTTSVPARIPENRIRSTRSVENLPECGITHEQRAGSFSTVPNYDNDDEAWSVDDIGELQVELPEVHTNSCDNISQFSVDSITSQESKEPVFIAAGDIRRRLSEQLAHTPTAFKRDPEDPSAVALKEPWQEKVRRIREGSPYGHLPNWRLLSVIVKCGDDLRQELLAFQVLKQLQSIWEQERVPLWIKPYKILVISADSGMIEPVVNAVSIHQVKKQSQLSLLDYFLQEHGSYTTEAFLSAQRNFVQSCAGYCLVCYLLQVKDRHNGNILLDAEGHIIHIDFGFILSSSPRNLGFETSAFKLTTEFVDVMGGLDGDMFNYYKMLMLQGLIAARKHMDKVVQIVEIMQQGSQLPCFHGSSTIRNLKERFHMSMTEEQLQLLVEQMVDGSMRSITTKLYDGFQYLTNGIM

CN(C)C(=O)Cn1cc(-c2nc(C3(c4ccc(-c5cnc(N)nc5)cc4)CC3)no2)cn1 [BI 0153]
inactive: [1] 100% | [2] 70%

CN(C)C(=O)Cn1cc(-c2nc([C@@](C)(c3ccc(-c4cnc(N)nc4)cc3)C3CC3)no2)cn1 [BI 665915]
inactive: [3] 97% | [4] 93% | [5] 114% | [6] 107% | [7] 101% | [8] 96% | [9] 95% | [10] 90.5% | [11] 108% | [12] 99% | [13] 106% | [14] 93.5% | [15] 99.5%
